For one data set, the target named is T1, wtKIT (Homo sapiens, UniProt P10721).
T1 construct: 1888289AM in the reaction mixtures
Kind of data set: HTRF biochemical assay, wtKIT (phosphorylation of a peptide substrate). To be noted: Table 4. An outline of the steps:
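wtKIT (5.0 nM) phosphorylating 1 µM FAM-labelled peptide with 400 µM ATP and 10 mM MnCl2 in 100 mM HEPES pH 7.5, 1% DMSO, 3 h at 25 °C. EDTA quench; phosphopeptide detected with anti-phosphotyrosine antibody by HTRF. Enzyme titrated for 10-20% substrate conversion.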

The target of another data set is T2, PDGFRα (Homo sapiens, UniProt P16234).
T2 construct: purchased Millipore 14-467 (lot 26321_ACTI)
T2 sequence (P16234 24-1089): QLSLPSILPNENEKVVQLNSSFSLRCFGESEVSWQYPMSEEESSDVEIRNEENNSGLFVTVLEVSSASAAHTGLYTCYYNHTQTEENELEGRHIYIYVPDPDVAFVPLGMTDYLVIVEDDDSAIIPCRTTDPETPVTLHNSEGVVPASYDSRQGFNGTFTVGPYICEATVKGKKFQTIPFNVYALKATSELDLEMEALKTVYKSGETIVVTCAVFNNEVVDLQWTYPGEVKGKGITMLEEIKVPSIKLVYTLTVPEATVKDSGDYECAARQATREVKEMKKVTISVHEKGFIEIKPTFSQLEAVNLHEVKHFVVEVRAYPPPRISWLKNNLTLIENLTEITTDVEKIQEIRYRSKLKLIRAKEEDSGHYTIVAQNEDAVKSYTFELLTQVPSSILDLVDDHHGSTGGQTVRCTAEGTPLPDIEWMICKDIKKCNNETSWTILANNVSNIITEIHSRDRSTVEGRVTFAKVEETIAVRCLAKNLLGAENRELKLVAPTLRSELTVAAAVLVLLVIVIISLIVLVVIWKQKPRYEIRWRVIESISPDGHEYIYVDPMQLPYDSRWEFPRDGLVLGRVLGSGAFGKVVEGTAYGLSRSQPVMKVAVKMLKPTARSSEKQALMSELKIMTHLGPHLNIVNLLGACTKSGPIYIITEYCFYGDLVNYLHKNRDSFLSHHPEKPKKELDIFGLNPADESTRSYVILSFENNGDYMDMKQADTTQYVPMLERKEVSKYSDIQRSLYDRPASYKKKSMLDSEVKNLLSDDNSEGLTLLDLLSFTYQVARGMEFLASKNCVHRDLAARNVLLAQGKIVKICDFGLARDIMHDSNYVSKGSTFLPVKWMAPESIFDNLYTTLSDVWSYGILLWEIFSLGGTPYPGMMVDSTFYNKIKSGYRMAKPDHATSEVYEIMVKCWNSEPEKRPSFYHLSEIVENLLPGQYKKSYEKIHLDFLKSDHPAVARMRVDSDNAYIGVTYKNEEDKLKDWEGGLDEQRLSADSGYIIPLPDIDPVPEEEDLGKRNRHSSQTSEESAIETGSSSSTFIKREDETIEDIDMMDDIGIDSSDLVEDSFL
The experiment in a line: HTRF biochemical assay, PDGFRα. To be noted: Table 4, read-out: PDFGRα Biochemical IC50 avg. An outline of the steps:
(§1)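 Kinase phosphorylation of a FAM-labelled peptide substrate, with ATP and Mn^2+ cofactors, run for 3 h at 25 °C, with optional enzyme–compound pre-incubation. Reactions were quenched with EDTA, and phosphopeptide was detected by anti-phosphotyrosine antibody HTRF.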

A short description of another data set: Kinetic solubility assay. The class given is physicochemical. To be noted: kinetic solubility, 50 mM PB (pH 7.4), shaken 24 hours at RT. An outline of the steps:
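Test compounds from 10 mM DMSO stock were diluted in 50 mM phosphate buffer, pH 7.4, and shaken for 24 h at RT. After PTFE filtration and centrifugation, filtrate concentration was quantified by UPLC-UV/HPLC-UV against a standard curve.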

Data set [1] relates to KIT phosphorylation in M-07e cells. Kind of data set: Cell-based KIT phosphorylation in M-07e cells by pKIT ELISA. Also on record: species or system human. To be noted: SCF stimulation. Put shortly:
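Serum-starved M-07e cells (1 × 10^6/mL, overnight) were treated with compounds (8-point 3-fold series from 1 uM) for 2 h at 37 °C, then stimulated with 100 ng/mL SCF for 5 min. Lysate phospho-KIT was captured on anti-phospho-CD117 plates, detected with anti-pY-HRP, and read at 450 nm against a pc-KIT standard curve.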

For data set [2], the target named is T3, KIT-NanoLuc fusion in HEK293 cells (Homo sapiens, UniProt P10721).
T3 construct: expressed in transfected cells; host or cells: HEK293, transient transfection
T3 sequence (P10721 26-976): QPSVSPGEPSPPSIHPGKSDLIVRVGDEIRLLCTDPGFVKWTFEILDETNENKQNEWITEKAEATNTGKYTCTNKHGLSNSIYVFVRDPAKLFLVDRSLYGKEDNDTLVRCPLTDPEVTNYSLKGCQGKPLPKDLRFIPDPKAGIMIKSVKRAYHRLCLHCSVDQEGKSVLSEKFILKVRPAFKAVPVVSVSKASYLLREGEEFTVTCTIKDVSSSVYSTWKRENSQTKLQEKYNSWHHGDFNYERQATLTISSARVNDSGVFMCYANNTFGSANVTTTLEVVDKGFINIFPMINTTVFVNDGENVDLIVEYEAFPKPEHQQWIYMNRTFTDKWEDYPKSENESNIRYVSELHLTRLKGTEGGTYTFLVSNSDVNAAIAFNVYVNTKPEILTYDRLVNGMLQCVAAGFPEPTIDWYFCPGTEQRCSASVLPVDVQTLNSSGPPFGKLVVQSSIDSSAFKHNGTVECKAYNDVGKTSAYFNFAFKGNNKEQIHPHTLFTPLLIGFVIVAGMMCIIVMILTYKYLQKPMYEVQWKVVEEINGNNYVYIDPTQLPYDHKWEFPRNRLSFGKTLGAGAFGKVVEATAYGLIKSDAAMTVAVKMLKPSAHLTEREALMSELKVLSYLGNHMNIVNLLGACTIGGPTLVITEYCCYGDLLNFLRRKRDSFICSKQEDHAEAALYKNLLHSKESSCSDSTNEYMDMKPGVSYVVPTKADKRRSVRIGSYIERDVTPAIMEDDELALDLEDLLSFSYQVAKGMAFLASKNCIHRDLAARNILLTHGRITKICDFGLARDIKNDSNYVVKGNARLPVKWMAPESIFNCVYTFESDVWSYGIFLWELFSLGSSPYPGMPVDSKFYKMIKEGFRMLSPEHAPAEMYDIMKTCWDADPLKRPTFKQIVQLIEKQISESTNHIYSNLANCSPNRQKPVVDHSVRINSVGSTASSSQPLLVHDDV
The experiment in a line: NanoBRET cellular target engagement assay, KIT. It counts as cell-based. The method, then: Exemplary compounds were tested for their ability to inhibit target engagement of KIT or CSF-1R kinases through competitive displacement of a Nano-Luc luciferase kinase fusion in HEK293 cells.
The NanoBRET target engagement assay employs an energy transfer technique designed to measure molecular proximity in living cells. The assay measures the apparent affinity of test compounds by competitive displacement of the NanoBRET tracer, reversibly bound to a NanoLuc luciferase-kinase fusion construct in cells. The intracellular binding affinity and selectivity are physiologically relevant and fundamental to the pharmacological mechanism of the compounds. While biochemical and biophysical assays identify the kinase inhibitors in vitro, the NanoBRET target engagement assay serves to determine the direct interaction of the compounds binding to target kinases in cells.
HEK293 cells transiently expressing NanoLuc-DDR1 fusion vector were seeded into 384-well plates and treated with the Tracer K-4 and compound for 1 hour. The BRET signal was measured on an EnVision 2104 multilabel microplate reader. NanoBRET Target Engagement Assay in HEK293 cells transiently transfected with KIT and CSF1R-NanoLuc Fusion Vector. HEK293 cells were transfected with […] KIT or CSF1R-NanoLuc Fusion Vector and […] carrier DNA. The transfected cells were treated with test compounds (starting at 10 μM, 10-dose with 3-fold dilution) and reference compound (desatinib) (starting at 1 μM, 10-dose with 3-fold dilution). Percent inhibition due to compound activity was calculated to determine IC50.

A further data set addresses T4, CSF-1R (Homo sapiens, UniProt P07333).
T4 construct: purchased Invitrogen PV3249 (lot 662393N)
Kind of data set: HTRF biochemical assay, CSF-1R. To be noted: Table 4. Put shortly: as §1

T4 sequence (P07333 20-972): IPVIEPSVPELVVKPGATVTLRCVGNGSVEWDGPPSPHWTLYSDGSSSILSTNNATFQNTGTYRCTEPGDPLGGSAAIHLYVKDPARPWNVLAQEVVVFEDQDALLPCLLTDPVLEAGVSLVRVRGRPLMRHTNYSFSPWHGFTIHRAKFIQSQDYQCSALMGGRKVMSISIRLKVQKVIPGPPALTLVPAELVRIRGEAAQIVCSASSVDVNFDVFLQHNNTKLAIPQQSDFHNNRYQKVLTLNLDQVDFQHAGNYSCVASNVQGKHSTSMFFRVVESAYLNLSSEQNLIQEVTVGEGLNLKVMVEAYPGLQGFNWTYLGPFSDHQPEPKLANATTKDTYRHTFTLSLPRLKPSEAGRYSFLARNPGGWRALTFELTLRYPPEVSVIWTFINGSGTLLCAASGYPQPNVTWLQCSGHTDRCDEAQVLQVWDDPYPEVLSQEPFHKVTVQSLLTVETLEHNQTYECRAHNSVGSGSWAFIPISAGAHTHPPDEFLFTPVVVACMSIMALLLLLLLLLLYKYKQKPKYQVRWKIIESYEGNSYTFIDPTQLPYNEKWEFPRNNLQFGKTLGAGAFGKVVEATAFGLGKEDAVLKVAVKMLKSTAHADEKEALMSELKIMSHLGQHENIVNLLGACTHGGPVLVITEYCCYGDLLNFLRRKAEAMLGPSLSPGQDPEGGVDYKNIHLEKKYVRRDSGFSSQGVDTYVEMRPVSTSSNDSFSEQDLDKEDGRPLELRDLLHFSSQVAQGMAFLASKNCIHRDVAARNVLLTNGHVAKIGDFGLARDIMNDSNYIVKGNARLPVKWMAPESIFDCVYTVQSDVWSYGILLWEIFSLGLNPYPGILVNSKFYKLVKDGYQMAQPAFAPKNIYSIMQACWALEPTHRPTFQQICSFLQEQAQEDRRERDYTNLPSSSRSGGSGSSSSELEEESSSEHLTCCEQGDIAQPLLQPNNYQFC
T1 sequence (P10721 26-976): as the sequence (P10721 26-976) above

With `Cc1nc(-c2ccc(C)c(NC(=O)c3cnc4cc(COCCO)ccn34)c2)no1` [Compound I-110], the IC50 is at most 50 nM on wtKIT; 500 to 5000 nM at PDGFRα; 50 to 500 nM in data set [1]; at most 100 nM in data set [2]; 500 to 5000 nM at CSF-1R. Also, the “Solubility (μM)” value in “Kinetic solubility assay” was “* (a solubility greater than 50 μM)”.

The values above are taken from patent publication US20240254119A1 (THIRD HARMONIC BIO, INC., priority 2022, published 2024).
